# Results from patent publication US4965269A, “Therapeutically active chloro substituted benzimidazoles” (AB Hassle, priority 1989, dated 1990).
# Test: Chemical stability in aqueous buffer solution
# Type: physicochemical
# Settings: pH 2, 37° C., time after which 10% of the original compound has decomposed
# Method: The chemical stability of the compounds of the invention has been followed kinetically at low concentration at 37° C. in aqueous buffer solution at different pH values. The results in Table 3 show the half life (t 1/2) at pH 7, that is the time period after which half the amount of the original compound remains unchanged, and t10 % at pH 2, that is the time period after which 10% of the original compound has decomposed.
row,"Chemical Stability at pH 2, t 10%",SMILES
1,14 h,"COc1ccnc(C[S+]([O-])c2nc3cc(Cl)ccc3n2COC(=O)OCc2ccccc2)c1OC (stereo not shown) [Example 1, 5-chloro-2-[[(3,4-dimethoxy-2-pyridinyl)methyl]sulfinyl]-1H-benzimidazole-1-ylmethyl benzyl carbonate]"
2,27 h,"COc1ccnc(C[S+]([O-])c2nc3ccc(Cl)cc3n2COC(=O)OCc2ccccc2)c1OC (stereo not shown) [Example 2, 6-chloro-2-[[(3,4-dimethoxy-2-pyridinyl)methyl]sulfinyl]-1H-benzimidazole-1-ylmethyl benzyl carbonate]"
3,21 h,"CCCCOC(=O)OCn1c([S+]([O-])Cc2nccc(OC)c2OC)nc2cc(Cl)ccc21 (stereo not shown) [Example 3, 5-chloro-2-[[(3,4-dimethoxy-2-pyridinyl)methyl]sulfinyl]-1H-benzimidazole-1-ylmethyl butyl carbonate]"
4,42 h,"CCCCOC(=O)OCn1c([S+]([O-])Cc2nccc(OC)c2OC)nc2ccc(Cl)cc21 (stereo not shown) [Example 4, 6-chloro-2[[(3,4-dimethoxy-2pyridinyl)methyl]sulfinyl]-1H-benzimidazole-1-ylmethyl butyl carbonate]"
